Measurements as given in the kinase profiling compilation of Christmann-Franck et al. (2016).

Tests used:
Conditions in all cases: compound 10.0 µM
[1] = biological target: AAK1 (human) (UniProt Q2M2I8)
[2] = biological target: ACVR2B (human) (UniProt Q13705)
[3] = biological target: BRSK1 (human) (UniProt Q8TDC3)
[4] = biological target: BTK (human) (UniProt Q06187)
[5] = biological target: CDK2 (human) (UniProt P24941)
[6] = biological target: CSNK2A2 (human) (UniProt P19784)
[7] = biological target: DAPK1 (human) (UniProt P53355)
[8] = biological target: DDR1 (human) (UniProt Q08345)
[9] = biological target: DYRK1B (human) (UniProt Q9Y463)
[10] = biological target: EIF2AK2 (human) (UniProt P19525)
[11] = biological target: ERBB2 (human) (UniProt P04626)
[12] = biological target: FGFR3 (human) (UniProt P22607)
[13] = system: FLT3 (human), P36888 [N841I]
[14] = biological target: IRAK3 (human) (UniProt Q9Y616)
[15] = system: KIT (human), P10721 [V559D]
[16] = biological target: MAP2K5 (human) (UniProt Q13163)
Sequence of MAP2K5 (human) (Q13163 whole entry, looked up): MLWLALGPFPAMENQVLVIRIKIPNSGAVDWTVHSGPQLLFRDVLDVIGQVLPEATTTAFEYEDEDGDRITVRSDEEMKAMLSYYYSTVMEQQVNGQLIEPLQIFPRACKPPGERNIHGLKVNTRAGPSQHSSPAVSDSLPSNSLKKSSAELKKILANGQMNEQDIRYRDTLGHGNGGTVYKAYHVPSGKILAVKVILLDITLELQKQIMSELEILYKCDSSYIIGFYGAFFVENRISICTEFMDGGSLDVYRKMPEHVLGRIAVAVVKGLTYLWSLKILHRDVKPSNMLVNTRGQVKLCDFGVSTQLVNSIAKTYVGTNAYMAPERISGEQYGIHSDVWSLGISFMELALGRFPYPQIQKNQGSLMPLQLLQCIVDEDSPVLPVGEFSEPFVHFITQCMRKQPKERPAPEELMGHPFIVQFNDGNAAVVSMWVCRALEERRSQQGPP

[17] = biological target: MAP2K6 (human) (UniProt P52564)
[18] = biological target: MAP3K15 (human) (UniProt Q6ZN16)
[19] = biological target: MAP3K9 (human) (UniProt P80192)
[20] = biological target: MAST1 (human) (UniProt Q9Y2H9)
Sequence of MAST1 (human) (Q9Y2H9 whole entry, looked up): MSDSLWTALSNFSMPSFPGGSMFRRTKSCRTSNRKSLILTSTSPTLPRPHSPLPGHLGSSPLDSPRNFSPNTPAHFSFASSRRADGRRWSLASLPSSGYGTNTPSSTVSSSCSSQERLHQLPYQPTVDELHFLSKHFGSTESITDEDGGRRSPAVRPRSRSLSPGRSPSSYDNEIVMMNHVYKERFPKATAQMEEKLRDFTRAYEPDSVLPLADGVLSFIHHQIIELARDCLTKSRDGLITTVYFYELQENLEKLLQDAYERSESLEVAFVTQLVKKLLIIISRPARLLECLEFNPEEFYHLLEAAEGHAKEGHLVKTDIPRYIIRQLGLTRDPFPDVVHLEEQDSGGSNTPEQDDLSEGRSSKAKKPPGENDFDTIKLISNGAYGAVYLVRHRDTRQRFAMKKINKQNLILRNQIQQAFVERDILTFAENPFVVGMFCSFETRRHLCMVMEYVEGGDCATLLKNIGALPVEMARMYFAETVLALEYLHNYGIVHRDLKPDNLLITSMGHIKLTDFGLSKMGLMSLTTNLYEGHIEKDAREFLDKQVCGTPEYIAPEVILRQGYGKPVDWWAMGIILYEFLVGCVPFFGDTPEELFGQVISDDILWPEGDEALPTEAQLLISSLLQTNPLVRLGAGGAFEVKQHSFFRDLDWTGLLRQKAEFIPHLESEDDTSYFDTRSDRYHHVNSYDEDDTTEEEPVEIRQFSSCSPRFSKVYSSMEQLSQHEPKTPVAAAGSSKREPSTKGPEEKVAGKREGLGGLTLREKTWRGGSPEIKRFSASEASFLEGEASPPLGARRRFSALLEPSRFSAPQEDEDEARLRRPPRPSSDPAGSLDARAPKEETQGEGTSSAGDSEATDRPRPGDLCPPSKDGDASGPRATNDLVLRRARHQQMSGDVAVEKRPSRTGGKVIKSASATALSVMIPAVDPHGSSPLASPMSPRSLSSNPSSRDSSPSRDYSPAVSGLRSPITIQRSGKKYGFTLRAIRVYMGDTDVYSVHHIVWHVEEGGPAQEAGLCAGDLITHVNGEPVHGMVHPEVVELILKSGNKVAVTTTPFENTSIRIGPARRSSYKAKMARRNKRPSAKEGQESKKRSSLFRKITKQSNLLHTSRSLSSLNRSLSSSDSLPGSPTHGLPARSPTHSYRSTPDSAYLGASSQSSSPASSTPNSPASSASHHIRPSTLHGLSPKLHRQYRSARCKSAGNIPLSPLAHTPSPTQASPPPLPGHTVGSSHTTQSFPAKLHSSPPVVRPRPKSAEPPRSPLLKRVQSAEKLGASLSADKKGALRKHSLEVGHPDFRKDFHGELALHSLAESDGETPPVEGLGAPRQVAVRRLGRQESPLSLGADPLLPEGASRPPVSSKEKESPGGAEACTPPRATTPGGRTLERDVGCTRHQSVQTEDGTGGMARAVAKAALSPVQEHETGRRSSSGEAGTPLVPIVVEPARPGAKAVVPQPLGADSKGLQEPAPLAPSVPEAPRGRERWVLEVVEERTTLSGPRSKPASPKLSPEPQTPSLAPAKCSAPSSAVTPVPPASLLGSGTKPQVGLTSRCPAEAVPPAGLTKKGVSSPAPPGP

[21] = biological target: MET (human) (UniProt P08581)
[22] = system: MET (human), P08581 [Y1235D]
[23] = biological target: NUAK2 (human) (UniProt Q9H093)
[24] = biological target: PIM2 (human) (UniProt Q9P1W9)
[25] = biological target: PIP5K1C (human) (UniProt O60331)
[26] = biological target: PRKD2 (human) (UniProt Q9BZL6)
[27] = biological target: PRKD3 (human) (UniProt O94806)
[28] = biological target: PTK6 (human) (UniProt Q13882)
Sequence of PTK6 (human) (Q13882 whole entry, looked up): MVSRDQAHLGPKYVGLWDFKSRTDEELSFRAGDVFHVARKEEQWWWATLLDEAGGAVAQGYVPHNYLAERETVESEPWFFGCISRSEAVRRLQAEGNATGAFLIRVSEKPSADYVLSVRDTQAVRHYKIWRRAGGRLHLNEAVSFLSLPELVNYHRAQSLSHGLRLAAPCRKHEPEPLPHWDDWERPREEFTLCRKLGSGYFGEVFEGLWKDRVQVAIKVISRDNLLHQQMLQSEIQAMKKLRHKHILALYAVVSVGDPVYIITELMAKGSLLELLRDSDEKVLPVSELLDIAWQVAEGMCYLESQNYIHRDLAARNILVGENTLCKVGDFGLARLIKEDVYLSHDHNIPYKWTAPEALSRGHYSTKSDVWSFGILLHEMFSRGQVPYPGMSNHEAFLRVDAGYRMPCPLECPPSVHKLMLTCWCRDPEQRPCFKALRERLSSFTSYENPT

[29] = system: RET (human), P07949 [M918T]
Sequence of RET (human), P07949 [M918T] (P07949 whole entry M918T, looked up): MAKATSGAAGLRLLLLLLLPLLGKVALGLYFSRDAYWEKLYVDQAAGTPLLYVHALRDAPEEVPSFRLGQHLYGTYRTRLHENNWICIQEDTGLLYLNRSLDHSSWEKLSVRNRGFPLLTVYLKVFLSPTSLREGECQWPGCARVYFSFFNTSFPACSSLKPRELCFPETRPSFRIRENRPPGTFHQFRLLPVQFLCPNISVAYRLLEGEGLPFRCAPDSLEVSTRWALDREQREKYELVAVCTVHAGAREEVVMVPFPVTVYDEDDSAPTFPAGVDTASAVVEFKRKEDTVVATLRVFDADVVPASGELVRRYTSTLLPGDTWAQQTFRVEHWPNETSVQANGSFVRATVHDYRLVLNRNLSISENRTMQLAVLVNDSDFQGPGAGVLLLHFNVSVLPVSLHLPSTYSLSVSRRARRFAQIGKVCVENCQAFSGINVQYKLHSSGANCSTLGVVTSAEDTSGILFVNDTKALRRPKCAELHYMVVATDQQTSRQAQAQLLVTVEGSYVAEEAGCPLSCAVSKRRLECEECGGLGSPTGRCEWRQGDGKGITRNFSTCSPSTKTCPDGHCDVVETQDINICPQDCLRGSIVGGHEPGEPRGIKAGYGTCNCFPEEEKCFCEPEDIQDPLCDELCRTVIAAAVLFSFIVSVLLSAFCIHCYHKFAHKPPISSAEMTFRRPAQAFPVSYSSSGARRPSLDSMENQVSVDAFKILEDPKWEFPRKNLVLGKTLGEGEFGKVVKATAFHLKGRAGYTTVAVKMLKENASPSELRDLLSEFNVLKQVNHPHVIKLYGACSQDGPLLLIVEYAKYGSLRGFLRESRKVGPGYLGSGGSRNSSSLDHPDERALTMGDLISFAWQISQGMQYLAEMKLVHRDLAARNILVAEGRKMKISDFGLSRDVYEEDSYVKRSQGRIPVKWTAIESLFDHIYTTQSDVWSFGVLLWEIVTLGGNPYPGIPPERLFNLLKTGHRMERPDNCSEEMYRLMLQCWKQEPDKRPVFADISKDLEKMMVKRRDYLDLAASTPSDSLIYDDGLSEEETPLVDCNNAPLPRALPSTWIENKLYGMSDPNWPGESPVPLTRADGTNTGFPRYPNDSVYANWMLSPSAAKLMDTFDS

[30] = biological target: RIOK1 (human) (UniProt Q9BRS2)
[31] = biological target: RIPK1 (human) (UniProt Q13546)
[32] = biological target: ROS1 (human) (UniProt P08922)
[33] = biological target: RPS6KA3 KD1 (human) (UniProt P51812)
[34] = biological target: RPS6KA4 KD2 (human) (UniProt O75676)
[35] = biological target: SRPK2 (human) (UniProt P78362)
[36] = biological target: STK32B (human) (UniProt Q9NY57)
[37] = biological target: STK36 (human) (UniProt Q9NRP7)
[38] = biological target: SYK (human) (UniProt P43405)
[39] = biological target: TNIK (human) (UniProt Q9UKE5)
[40] = biological target: TYK2 JH1 catalytic (human) (UniProt P29597)
[41] = biological target: ULK3 (human) (UniProt Q6PHR2)

Sequence of AAK1 (human) (Q2M2I8 whole entry, looked up): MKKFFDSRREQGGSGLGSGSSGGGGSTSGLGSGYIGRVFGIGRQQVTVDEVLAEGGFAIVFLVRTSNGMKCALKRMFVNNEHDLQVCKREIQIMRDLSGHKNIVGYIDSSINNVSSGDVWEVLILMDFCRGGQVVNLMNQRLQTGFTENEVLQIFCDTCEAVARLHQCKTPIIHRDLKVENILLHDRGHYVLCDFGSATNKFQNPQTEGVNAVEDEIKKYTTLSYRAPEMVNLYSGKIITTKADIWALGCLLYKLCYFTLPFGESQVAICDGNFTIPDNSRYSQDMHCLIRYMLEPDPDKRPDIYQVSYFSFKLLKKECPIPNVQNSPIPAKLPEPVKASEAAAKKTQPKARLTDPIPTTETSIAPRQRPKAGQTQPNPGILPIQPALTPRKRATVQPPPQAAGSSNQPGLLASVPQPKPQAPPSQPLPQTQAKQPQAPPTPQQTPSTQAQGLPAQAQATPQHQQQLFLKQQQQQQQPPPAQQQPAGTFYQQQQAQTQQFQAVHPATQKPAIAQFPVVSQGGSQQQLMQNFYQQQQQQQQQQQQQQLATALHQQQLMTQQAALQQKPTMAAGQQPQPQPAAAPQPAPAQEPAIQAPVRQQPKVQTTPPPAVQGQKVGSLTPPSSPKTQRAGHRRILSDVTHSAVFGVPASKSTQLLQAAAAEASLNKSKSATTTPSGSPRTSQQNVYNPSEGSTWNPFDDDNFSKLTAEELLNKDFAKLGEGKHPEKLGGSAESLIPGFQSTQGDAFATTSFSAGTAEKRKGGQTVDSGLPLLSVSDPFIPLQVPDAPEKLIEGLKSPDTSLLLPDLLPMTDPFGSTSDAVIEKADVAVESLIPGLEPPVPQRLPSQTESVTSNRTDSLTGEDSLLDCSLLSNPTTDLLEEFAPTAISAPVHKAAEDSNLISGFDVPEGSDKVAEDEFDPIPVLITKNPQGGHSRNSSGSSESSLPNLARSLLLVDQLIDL
Sequence of ACVR2B (human) (Q13705 whole entry, looked up): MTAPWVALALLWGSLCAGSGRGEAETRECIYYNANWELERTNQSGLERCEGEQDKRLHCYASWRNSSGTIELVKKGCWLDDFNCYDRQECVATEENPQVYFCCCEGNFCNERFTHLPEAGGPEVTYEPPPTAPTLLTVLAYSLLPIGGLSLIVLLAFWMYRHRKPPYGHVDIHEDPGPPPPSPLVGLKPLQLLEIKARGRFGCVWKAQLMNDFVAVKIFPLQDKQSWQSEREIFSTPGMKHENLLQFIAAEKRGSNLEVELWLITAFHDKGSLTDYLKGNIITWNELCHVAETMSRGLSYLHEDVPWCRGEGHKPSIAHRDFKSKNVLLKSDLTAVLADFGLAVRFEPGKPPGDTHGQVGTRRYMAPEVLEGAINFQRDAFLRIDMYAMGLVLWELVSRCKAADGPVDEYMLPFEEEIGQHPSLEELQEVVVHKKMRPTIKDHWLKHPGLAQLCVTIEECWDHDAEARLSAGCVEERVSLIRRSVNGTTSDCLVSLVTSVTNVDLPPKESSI

`CNC(=O)c1cc(Oc2ccc(NC(=O)Nc3ccc(Cl)c(C(F)(F)F)c3)cc2)ccn1` showed a per cent of control [1] of 100%, a per cent of control [2] of 68% and a per cent of control [3] of 100%. The per cent of control [4] was 62%, the per cent of control [5] was 15% and the per cent of control [6] was 82%. The per cent of control [7] was 95%, the per cent of control [8] was 0% and the per cent of control [9] was 67%. The per cent of control [10] was 74%, the per cent of control [11] was 100% and the per cent of control [12] was 20%. It also gave a per cent of control [13] of 0%, a per cent of control [14] of 76% and a per cent of control [15] of 0%. The per cent of control [16] was 0.35%, the per cent of control [17] was 73% and the per cent of control [18] was 79%. For the same compound, the per cent of control [19] was 100%, the per cent of control [20] was 100% and the per cent of control [21] was 74%. For the same compound, the per cent of control [22] was 60%, the per cent of control [23] was 100% and the per cent of control [24] was 89%. For the same compound, the per cent of control [25] was 79%, the per cent of control [26] was 100% and the per cent of control [27] was 70%. For the same compound, the per cent of control [28] was 93%, the per cent of control [29] was 0% and the per cent of control [30] was 100%. The per cent of control [31] was 88%, the per cent of control [32] was 79% and the per cent of control [33] was 99%. It also gave a per cent of control [34] of 100%, a per cent of control [35] of 100% and a per cent of control [36] of 100%. The per cent of control [37] was 16%, the per cent of control [38] was 77% and the per cent of control [39] was 21%. It also gave a per cent of control [40] of 100% and a per cent of control [41] of 100%.

In the case of `CNC(=O)c1cc(Oc2ccc(NC(=O)Nc3ccc(Cl)c(C(F)(F)F)c3)cc2)cc[n+]1[O-]`, the per cent of control [1] is reported as 100%, the per cent of control [2] is reported as 22% and the per cent of control [3] is reported as 76%. For the same compound, the per cent of control [4] was 30%, the per cent of control [5] was 1.8% and the per cent of control [6] was 70%. The per cent of control [7] was 85%, the per cent of control [8] was 0.05% and the per cent of control [9] was 69%. The per cent of control [10] was 58%, the per cent of control [11] was 100% and the per cent of control [12] was 32%. It also gave a per cent of control [13] of 0%, a per cent of control [14] of 91% and a per cent of control [15] of 0%. For the same compound, the per cent of control [16] was 0.1%, the per cent of control [17] was 55% and the per cent of control [18] was 80%. The per cent of control [19] was 100%, the per cent of control [20] was 100% and the per cent of control [21] was 16%. For the same compound, the per cent of control [22] was 11%, the per cent of control [23] was 85% and the per cent of control [24] was 100%. For the same compound, the per cent of control [25] was 66%, the per cent of control [26] was 83% and the per cent of control [27] was 83%. It also gave a per cent of control [28] of 100%, a per cent of control [29] of 0% and a per cent of control [30] of 100%. It also gave a per cent of control [31] of 87%, a per cent of control [32] of 73% and a per cent of control [33] of 52%. It also gave a per cent of control [34] of 98%, a per cent of control [35] of 73% and a per cent of control [36] of 100%. For the same compound, the per cent of control [37] was 26%, the per cent of control [38] was 89% and the per cent of control [39] was 3.9%. The per cent of control [40] was 100% and the per cent of control [41] was 82%.
